These results are taken from patent US4237305A, “Substituted phenylacetic acid compounds and process for preparation thereof” (Fujisawa Pharmaceutical Co., Ltd., priority 1976, dated 1980).

One test has as its system Escherichia coli 114. The test is described as follows: MIC (Minimum Inhibitory Concentration) determined by conventional method, Escherichia coli 114. In kind it is cell-based. An excerpt: (§1) MIC (Minimum Inhibitory Concentration) value
(§2) determined by conventional method

Test [1] concerns Pseudomonas aeruginosa 10490. Kind of test: MIC (Minimum Inhibitory Concentration) determined by conventional method, Pseudomonas aeruginosa 10490. Type of test: cell-based.
Text: as §1, §2

In the case of `NC(CCOc1ccc(C(=O)C(=O)NC2CN(C(C(=O)O)c3ccc(O)cc3)C2=O)cc1)C(=O)O` (centres unmarked) [d.circle.], the “MIC (Minimum Inhibitory Concentration) value” against Escherichia coli 114 is 1.6; in test [1] it was 25.
